Experimental findings from patent US11229618B2 (Amarin Pharmaceuticals Ireland Limited, priority 2012, dated 2022) are described below.

The data set is described as follows: Phase 1 multidose pharmacokinetic study: unesterified EPA in plasma (LC-MS/MS). Type of data set: in vivo, human. Particulars: for Unesterified EPA in plasma, CL/F: day 28. Here is the method: A study to characterize the pharmacokinetics of ethyl eicosapentaenoate in plasma and red blood cells after multiple-dose administration of IPE at 2 g per day and 4 g per day was performed in healthy adult male and female humans.
The study was a phase 1, open-label, randomized, multidose study in healthy, nonsmoking men and women aged>18 and ≤55 years with a body mass index (BMI)>18 and ≤30 kg/m′. Exclusion criteria included use within 6 weeks prior to randomization through study end of any lipid-altering medications or supplements, including statins, niacin at levels of greater than 200 mg/day, fibrates, ezetimibe, bile acid sequestrants, omega-3 fatty acid medications, and supplements or foods enriched with omega-3 fatty acids (no more than 2 servings of fish per week were permitted).
Following a 14-day screening period, subjects entered a 28-day treatment period and were randomized to one of four IPE dose regimen treatment groups as shown in FIG. 1. Group 1 received IPE 2 g daily (1000-mg capsules; twice-daily [BID] regimen); Group 2 received IPE 4 g daily (1000-mg capsules; BID regimen); Group 3 received IPE 2 g daily (1000-mg capsules; once-daily [QD] regimen); and Group 4 received IPE 2 g daily (500-mg capsules; BID regimen). Treatment was administered orally, with or following a meal in the morning and evening for BID regimens, or in the morning only for the QD regimen. Subjects then entered an 18-day post-treatment pharmacokinetic sampling period.
Fasting EPA concentrations were measured with a validated liquid chromatography with tandem mass spectrometry (LC-MS/MS) method in plasma and RBCs prior to the morning dose (days 1, 14, 26, 28) and at serial time points (1, 3, 5, 6, 8, 10, 12, 24, 48, 72, 120, 192, 312, and 432 hours) after the morning dose on day 28. After the last dose on day 28, EPA concentrations were followed for 18 days to estimate the expected long half-life of EPA. Total plasma EPA included all EPA forms (unesterified EPA and that incorporated in phospholipids, triacylglycerols, and cholesteryl esters). In RBCs, EPA was measured in the cell membrane, where EPA is mainly incorporated in phospholipids.
For total EPA in plasma and RBCs, lipids were isolated by acid/methanol/chloroform extraction followed by centrifugation and purified by isohexane and solid-phase extraction after confirmed complete lipid hydrolysis and transmethylation (acid/methanol, 50° C. overnight). For unesterified EPA in plasma, 25 μL of an inhibitor solution (0.5 g sodium fluoride, 1.0 g L-ascorbic acid, and 0.25 g 5-methylisoxazole-3-carboxylic acid per 10 mL water) was included per 1 mL plasma sample to prevent degradation and lipids were isolated by centrifugation after methanol/chloroform extraction (without hydrolysis or methylation) and further purified by protein precipitation and solid-phase extraction. Quantitation utilized linolenic acid as an internal standard and EPA as the standard for the calibration curve; for total plasma EPA, RBC EPA, and unesterified EPA, the lower limits of quantitation were 10 μg/mL, 5 μg/mL, and 50 ng/mL, respectively. EPA concentrations were measured at Charles River Laboratories Ltd (Elphinstone Research Center, Tranent, Edinburgh, Scotland, UK).
Unless otherwise specified, all reported parameters are based on baseline-subtracted concentrations (baseline is due to EPA derived from dietary sources).

The mark [1] stands for this setting: about 2 g orally twice per day, human.

As for `CC/C=C\C/C=C\C/C=C\C/C=C\C/C=C\CCCC(=O)OCC` [IPE, all-cis eicosa-5,8,11,14,17-pentaenoic acid ethyl ester], under “Group 1: IPE 2 g/d 1 × 1000 mg BID”, the “Unesterified EPA in plasma, CL/F” value is on record as 364,513 mL/hr. For the same compound, where the note is “Group 2: IPE 4 g/d 2 × 1000 mg BID”, the “Unesterified EPA in plasma, CL/F” value is on record as 234,329 mL/hr. The “Unesterified EPA in plasma, CL/F” value (Group 3: IPE 2 g/d 2 × 1000 mg QD) was 241,855 mL/hr. For the same compound, the “Unesterified EPA in plasma, CL/F” value (Group 4: IPE 2 g/d 2 × 500 mg BID) was 326,622 mL/hr. Moreover, the “mean plasma CL/F of unesterified eicosapentaenoic acid” value (about 1 g orally twice per day, human) was “about 364,513+/−214,003 mL/h”. Also, under setting [1], the “mean plasma AUC0-24h of unesterified eicosapentaenoic acid” value was “about 18.4+/−4.6 μg·h/mL”, the “mean plasma CL/F of unesterified eicosapentaenoic acid” value is given as “about 234,329+/−81,639 mL/h”, the “mean plasma Calm of unesterified eicosapentaenoic acid” value is “about 1.06+/−0.56 μg/mL” and the “mean plasma Cmax of unesterified eicosapentaenoic acid” value is “about 1.4+/−0.41 μg/mL”. Besides, under setting [1], the “mean plasma T1/2 of unesterified eicosapentaenoic acid” value is “about 97.2+/−36.5 hours” and the “median plasma Tmax of unesterified eicosapentaenoic acid” value was “about 5 hours”.
